# Target: T1, Kv7.2/7.3 (Homo sapiens, UniProt O43525+O43526)
# T1 construct: Kv7.2 tetracycline-induced, Kv7.3 constitutive
# Experiment: Kv7.2/7.3 Activation Assay (Thallium Flux Assay)
# Assay type: cell-based
# Settings: hKV7.2/7.3 cell line; test compound at single concentration of 10 μM; fluorescence at 90 sec normalized to positive control (retigabine, 30 μM)
# Source text: The Thallium Flux Assay is used as a surrogate indicator of potassium channel activity.
# The experimental protocol was adapted from the FluxOR™ II Green Potassium Ion Channel Assay User Guide (Pub. No. MAN0016084, Invitrogen). Conditions were optimized for the Kv7.2/7.3 cell line.
# Cell Line: The hKV7.2/7.3 cell line was obtained from Chantest (cat. #CT6147).
# Cell Culture: Kv7.2/7.3 cells were maintained in a media containing DMEM/F12; 50/50 (Fisher 11-330), 10% Fetal Bovine Serum (FBS) (Fisher 26-140), 100 units/mL Penicillin-Streptomycin (Fisher 15-140), 0.005 mg/ml Blasticidin (InvivoGen ant-bl-1), 0.5 mg/mL Geneticin (InvivoGen ant-gn-5), and 0.1 mg/mL Zeocin (Fisher R25001). One day prior to experimentation, cells were plated in 96 well clear bottom plates (Corning cat. #353219) in a media without Blasticidin, Geneticin, or Zeocin. In this cell line Kv7.3 channel expression is controlled by a constitutive promoter. Kv7.2 channel expression was induced by adding tetracycline (Sigma T7660) at a final concentration of 10 ng/mL overnight in a cell culture incubator at 37° C. and 5% CO2. On the day of assay, the cell culture medium in the 96-well plates was replaced by assay buffer containing the thallium-sensitive fluorescent sensor, FluxOR II Green prepared according to manufacturer's instructions. The 96-well plates were then incubated for 1 h at 37° C. Following the incubation, the FluxOR II Green-containing solution was replaced with extracellular solution.
# Test Compound Plates: The test compound is diluted in a mixture of 0.1% DMSO/extracellular solution at a single concentration of 10 μM. Dilutions were made on a Biomek NXP (BECKMAN COULTER). Extracellular solution contained (in mM: 145 NaCl, 4 KCl, 2 CaCl2), 1 MgCl2, 10 HEPES, and 10 Glucose, pH 7.4).
# Measurement and data analysis: Thallium-flux-mediated changes in intracellular fluorescence were made using a plate reader (Enspire, Perkin Elmer) set with an excitation wavelength of 475 nm and an emission wavelength of 530 nm. After a 15 sec baseline measurement, the stimulus buffer containing thallium and potassium was added to the 96-well plate containing FluxOR II Green-loaded cells and test compounds. Fluorescence values at 90 sec were normalized to the positive control (retigabine, 30 μM) and test compound activities were assigned categories according to the formula: “No Activity <0.15, “+” Moderate Activity 0.15-0.7, and “++” High Activity >0.7.
row,Kv7.2/7.3 Activity,SMILES
1,− (“−” No Activity < 0.15),"C[C@@H](C(=O)Nc1nn(CC(F)(F)F)c(-c2ccc(F)cc2)c1C1CCC1)C1(C(F)(F)F)CC1 [Compound 143, (R)-N-(4-cyclobutyl-5-(4-fluorophenyl)-1-(2,2,2-trifluoroethyl)-1H-pyrazol-3-yl)-2-(1-(trifluoromethyl)cyclopropyl)propanamide]"
2,++ (“++” High Activity ≥ 0.7),"Cn1nc(NC(=O)CC2CCCC2)c(C2CCC2)c1-c1ccc(F)cc1 [Compound 102, N-(4-cyclobutyl-5-(4-fluorophenyl)-1-methyl-1H-pyrazol-3-yl)-2-cyclopentylacetamide]"
3,++ (“++” High Activity ≥ 0.7),"Cc1c(NC(=O)CC(C)(C)C(F)(F)F)nn(C)c1-c1ccc(F)cc1 [Compound 20, 4,4,4-trifluoro-N-(5-(4-fluorophenyl)-1,4-dimethyl-1H-pyrazol-3-yl)-3,3-dimethylbutanamide]"
4,++ (“++” High Activity ≥ 0.7),"CC(C)c1c(NC(=O)CC(C)(C)C)nn(C)c1-c1ccc(F)cc1 [Compound 22, N-(5-(4-fluorophenyl)-4-isopropyl-1-methyl-1H-pyrazol-3-yl)-3,3-dimethylbutanamide]"
5,++ (“++” High Activity ≥ 0.7),"Cn1nc(NC(=O)CC2(C(F)(F)F)CCC2)c(C2CCC2)c1-c1ccc(F)cc1 [Compound 83, N-(4-cyclobutyl-5-(4-fluorophenyl)-1-methyl-1H-pyrazol-3-yl)-2-(1-(trifluoromethyl)cyclobutyl)acetamide]"
6,+ (“+” Moderate Activity 0.15-0.7),"Cn1nc(NC(=O)C2COC2)c(C2CCC2)c1-c1ccc(Cl)s1 [Compound 276, N-(5-(5-chlorothiophen-2-yl)-4-cyclobutyl-1-methyl-1H-pyrazol-3-yl)oxetane-3-carboxamide]"
7,− (“−” No Activity < 0.15),"Cn1nc(NC(=O)C[C@H]2CC(F)(F)C2(F)F)c(C2CCC2)c1-c1ccc(S(C)(=O)=O)cc1 [Compound 54, (S)-N-(4-cyclobutyl-1-methyl-5-(4-(methylsulfonyl)phenyl)-1H-pyrazol-3-yl)-2-(2,2,3,3-tetrafluorocyclobutyl)acetamide]"
8,++ (“++” High Activity ≥ 0.7),"CC(C)C1(C(=O)Nc2nn(C)c(-c3ccc(F)cc3)c2C2CCC2)CC1 [Compound 136, N-(4-cyclobutyl-5-(4-fluorophenyl)-1-methyl-1H-pyrazol-3-yl)-1-isopropylcyclopropane-1-carboxamide]"
9,+ (“+” Moderate Activity 0.15-0.7),"N#CCn1nc(NC(=O)C[C@H]2CC(F)(F)C2(F)F)c(C2CCC2)c1-c1ccc(F)cc1 [Compound 46, (S)-N-(1-(cyanomethyl)-4-cyclobutyl-5-(4-fluorophenyl)-1H-pyrazol-3-yl)-2-(2,2,3,3-tetrafluorocyclobutyl)acetamide]"
10,− (“−” No Activity < 0.15),"Cn1nc(NC(=O)CC(C)(C)C)c(C2CCC2)c1-c1ccc(C(C)(C)O)cc1 [Compound 29, N-(4-cyclobutyl-5-(4-(2-hydroxypropan-2-yl)phenyl)-1-methyl-1H-pyrazol-3-yl)-3,3-dimethylbutanamide]"
11,+ (“+” Moderate Activity 0.15-0.7),"CCn1nc(NC(=O)Cc2cc(Cl)ccc2Cl)c(C2CC2)c1C [Compound 9, N-(4-cyclopropyl-1-ethyl-5-methyl-1H-pyrazol-3-yl)-2-(2,5-dichlorophenyl)acetamide]"
12,++ (“++” High Activity ≥ 0.7),"Cn1nc(NC(=O)C2CC(F)(F)C2)c(C2CCC2)c1-c1ccc(Cl)cc1 [Compound 220, N-(5-(4-chlorophenyl)-4-cyclobutyl-1-methyl-1H-pyrazol-3-yl)-3,3-difluorocyclobutane-1-carboxamide]"
13,+ (“+” Moderate Activity 0.15-0.7),"Cn1nc(NC(=O)C[C@H]2CC(F)(F)C2(F)F)c(C2CCC2)c1Cc1ccc(OC(F)(F)F)cc1 [Compound 64, (S)-N-(4-cyclobutyl-1-methyl-5-(4-(trifluoromethoxy)benzyl)-1H-pyrazol-3-yl)-2-(2,2,3,3-tetrafluorocyclobutyl)acetamide]"
14,− (“−” No Activity < 0.15),"CCOC(=O)Nc1nn(CC)c(C)c1C1CC1 [Compound 6, ethyl (4-cyclopropyl-1-ethyl-5-methyl-1H-pyrazol-3-yl)carbamate]"
15,++ (“++” High Activity ≥ 0.7),"Cn1nc(NC(=O)C[C@@H]2CC(F)(F)C2(F)F)c(CC(F)(F)F)c1-c1ccccc1 [Compound 37, (R)-N-(1-methyl-5-phenyl-4-(2,2,2-trifluoroethyl)-1H-pyrazol-3-yl)-2-(2,2,3,3-tetrafluorocyclobutyl)acetamide]"
16,− (“−” No Activity < 0.15),"Cc1c(C2CCC2)c(NC(=O)CC2(C(F)(F)F)CC2)nn1Cc1ccc(F)cc1 [Compound 95, N-(4-cyclobutyl-1-(4-fluorobenzyl)-5-methyl-1H-pyrazol-3-yl)-2-(1-(trifluoromethyl)cyclopropyl)acetamide]"
17,++ (“++” High Activity ≥ 0.7),"Cn1nc(NC(=O)Cc2ccc(F)c(F)c2)c(C2CCC2)c1-c1ccc(OC(F)(F)F)cc1 [Compound 92, N-(4-cyclobutyl-1-methyl-5-(4-(trifluoromethoxy)phenyl)-1H-pyrazol-3-yl)-2-(3,4-difluorophenyl)acetamide]"
18,++ (“++” High Activity ≥ 0.7),"Cn1nc(NC(=O)C2CC(F)(F)C2)c(C2CCC2)c1-c1cc(F)cc(F)c1 [Compound 255, N-(4-cyclobutyl-5-(3,5-difluorophenyl)-1-methyl-1H-pyrazol-3-yl)-3,3-difluorocyclobutane-1-carboxamide]"
19,+ (“+” Moderate Activity 0.15-0.7),"Cn1nc(NC(=O)[C@H]2CC2(F)F)c(C2CCC2)c1-c1ccc(Cl)s1 [Compound 154, (R)-N-(5-(5-chlorothiophen-2-yl)-4-cyclobutyl-1-methyl-1H-pyrazol-3-yl)-2,2-difluorocyclopropane-1-carboxamide]"
20,++ (“++” High Activity ≥ 0.7),"Cn1nc(NC(=O)C2(C(F)(F)F)CC2)c(C2CC2)c1-c1ccc(F)cc1 [Compound 165, N-(4-cyclopropyl-5-(4-fluorophenyl)-1-methyl-1H-pyrazol-3-yl)-1-(trifluoromethyl)cyclopropane-1-carboxamide]"
21,++ (“++” High Activity ≥ 0.7),"Cn1nc(NC(=O)CC2(C(F)(F)F)CC2)c(C2CCC2)c1-c1ccccc1 [Compound 12, N-(4-cyclobutyl-1-methyl-5-phenyl-1H-pyrazol-3-yl)-2-(1-(trifluoromethyl)cyclopropyl)acetamide]"
22,++ (“++” High Activity ≥ 0.7),"Cn1nc(NC(=O)[C@H]2CC2(F)F)c(C2(C)CCC2)c1-c1ccc(F)cc1 [Compound 139, (R)-2,2-difluoro-N-(5-(4-fluorophenyl)-1-methyl-4-(1-methylcyclobutyl)-1H-pyrazol-3-yl)cyclopropane-1-carboxamide]"
23,− (“−” No Activity < 0.15),"C[C@H](C(=O)Nc1nn(CC(F)(F)F)c(-c2ccc(F)cc2)c1C1CCC1)C1(C(F)(F)F)CC1 [Compound 142, (S)-N-(4-cyclobutyl-5-(4-fluorophenyl)-1-(2,2,2-trifluoroethyl)-1H-pyrazol-3-yl)-2-(1-(trifluoromethyl)cyclopropyl)propanamide]"
24,++ (“++” High Activity ≥ 0.7),"Cn1nc(NC(=O)C2CC3(C2)CC3(F)F)c(C2CCC2)c1-c1ccc(OC(F)(F)F)cc1 (stereo not drawn) [Compound 186, N-(4-cyclobutyl-1-methyl-5-(4-(trifluoromethoxy)phenyl)-1H-pyrazol-3-yl)-1,1-difluorospiro[2.3]hexane-5-carboxamide]"
25,++ (“++” High Activity ≥ 0.7),"Cn1nc(NC(=O)[C@H]2C[C@H](C(F)(F)F)C2)c(C2CCC2)c1-c1ccc(F)cc1 [Compound 119, (1R,3R)-N-(4-cyclobutyl-5-(4-fluorophenyl)-1-methyl-1H-pyrazol-3-yl)-3-(trifluoromethyl)cyclobutane-1-carboxamide]"
26,+ (“+” Moderate Activity 0.15-0.7),"CCn1nc(NC(=O)[C@H]2CC2(C)C)c(C2CC2)c1C [Compound 10, (S)-N-(4-cyclopropyl-1-ethyl-5-methyl-1H-pyrazol-3-yl)-2,2-dimethylcyclopropane-1-carboxamide]"
27,++ (“++” High Activity ≥ 0.7),"Cn1nc(NC(=O)[C@H]2CC2(C)C)c(C2CCC2)c1-c1ccc(F)cc1 [Compound 110, (S)-N-(4-cyclobutyl-5-(4-fluorophenyl)-1-methyl-1H-pyrazol-3-yl)-2,2-dimethylcyclopropane-1-carboxamide]"

# Reference: patent US20250171430A1, “PYRAZOLYL COMPOUNDS AS KV7 CHANNEL ACTIVATORS” (Biohaven Therapeutics Ltd., priority 2022, published 2025)
